Source: patent publication US11685734B2, “ATM kinase inhibitors and compositions and methods of use thereof” (CHDI Foundation, Inc., priority 2019, dated 2023)

How the values were obtained:
[1] = target: Recombinant, full length human FLAG-tagged ATM (Homo sapiens (Human), UniProt Q13315); experiment: ATM ELISA for p53 S15 phosphorylation; type: biochemical; details: 0.75 nM ATM, 25 nM p53, 10 μM ATP, 30 min at 20° C.; read-out: ATM BIO IC50
Experimental: ATM: Recombinant, full length human FLAG-tagged ATM activity (Eurofins 14-933) was measured in an ELISA for p53 S15 phosphorylation, in a 384 well V-bottom polypropylene plate (Greiner Bio One 781280). Reactions contained 0.75 nM ATM, 25 nM full length myc tagged p53 (Eurofins 23-034), 10 μM UltraPure ATP (Promega V915B) and serial dilutions of inhibitors (0.1% DMSO final) in 25 mM HEPES, pH 7.5. 5 mM MgCl2, 2.5 mM MnCl2, 0.006% Brij-35, 0.5% glycerol, 0.1 mg/ml BSA, 0.5 mM DTT and were allowed to proceed for 30 min at 20° C. 70 mM EDTA final terminated the kinase reactions. An aliquot of the terminated reaction (25 μl) was transferred to a 384-well, high binding microplate (Greiner Bio One 781061), precoated with anti-myc capture antibody overnight (Millipore 05-724) diluted in 1:1000 in PBS, then blocked with Odyssey blocking buffer (LI-COR Biosciences 92740000) for 60 min at 20° C. The terminated reaction was allowed to capture for 2 h at 20° C. Phosphorylation was measured using an antibody specific to p53 S15 phosphorylation (1:5000 Abcam ab38497), anti-rabbit HRP (1:1000 Cell Signalling Technology, 7074) and TMB (ab171522). Antibodies were diluted in Odyssey blocking buffer and incubated for 60 min at 20° C. Three washes with PBS containing 0.05% (v/v) Tween 20 (PBS-T) were performed between each incubation. The TMB reaction was stopped with an equal volume of 0.2 M sulfuric acid and absorbance read at 450 nm on the Perkin Elmer Envision within 30 min of terminating the reaction. […] IC50 values represent the mean from at least two independent experiments.

cellular ATM activity = cellular ATM activity (Homo sapiens (Human), UniProt Q13315); experiment: Inhibition of cellular ATM activity: etoposide-stimulated KAP1 phosphorylation in U20S cells; type: cell-based; details: 100 μM etoposide, 60 min, read-out: ATM CELL IC50
cellular ATM activity, sequence (Q13315 whole entry): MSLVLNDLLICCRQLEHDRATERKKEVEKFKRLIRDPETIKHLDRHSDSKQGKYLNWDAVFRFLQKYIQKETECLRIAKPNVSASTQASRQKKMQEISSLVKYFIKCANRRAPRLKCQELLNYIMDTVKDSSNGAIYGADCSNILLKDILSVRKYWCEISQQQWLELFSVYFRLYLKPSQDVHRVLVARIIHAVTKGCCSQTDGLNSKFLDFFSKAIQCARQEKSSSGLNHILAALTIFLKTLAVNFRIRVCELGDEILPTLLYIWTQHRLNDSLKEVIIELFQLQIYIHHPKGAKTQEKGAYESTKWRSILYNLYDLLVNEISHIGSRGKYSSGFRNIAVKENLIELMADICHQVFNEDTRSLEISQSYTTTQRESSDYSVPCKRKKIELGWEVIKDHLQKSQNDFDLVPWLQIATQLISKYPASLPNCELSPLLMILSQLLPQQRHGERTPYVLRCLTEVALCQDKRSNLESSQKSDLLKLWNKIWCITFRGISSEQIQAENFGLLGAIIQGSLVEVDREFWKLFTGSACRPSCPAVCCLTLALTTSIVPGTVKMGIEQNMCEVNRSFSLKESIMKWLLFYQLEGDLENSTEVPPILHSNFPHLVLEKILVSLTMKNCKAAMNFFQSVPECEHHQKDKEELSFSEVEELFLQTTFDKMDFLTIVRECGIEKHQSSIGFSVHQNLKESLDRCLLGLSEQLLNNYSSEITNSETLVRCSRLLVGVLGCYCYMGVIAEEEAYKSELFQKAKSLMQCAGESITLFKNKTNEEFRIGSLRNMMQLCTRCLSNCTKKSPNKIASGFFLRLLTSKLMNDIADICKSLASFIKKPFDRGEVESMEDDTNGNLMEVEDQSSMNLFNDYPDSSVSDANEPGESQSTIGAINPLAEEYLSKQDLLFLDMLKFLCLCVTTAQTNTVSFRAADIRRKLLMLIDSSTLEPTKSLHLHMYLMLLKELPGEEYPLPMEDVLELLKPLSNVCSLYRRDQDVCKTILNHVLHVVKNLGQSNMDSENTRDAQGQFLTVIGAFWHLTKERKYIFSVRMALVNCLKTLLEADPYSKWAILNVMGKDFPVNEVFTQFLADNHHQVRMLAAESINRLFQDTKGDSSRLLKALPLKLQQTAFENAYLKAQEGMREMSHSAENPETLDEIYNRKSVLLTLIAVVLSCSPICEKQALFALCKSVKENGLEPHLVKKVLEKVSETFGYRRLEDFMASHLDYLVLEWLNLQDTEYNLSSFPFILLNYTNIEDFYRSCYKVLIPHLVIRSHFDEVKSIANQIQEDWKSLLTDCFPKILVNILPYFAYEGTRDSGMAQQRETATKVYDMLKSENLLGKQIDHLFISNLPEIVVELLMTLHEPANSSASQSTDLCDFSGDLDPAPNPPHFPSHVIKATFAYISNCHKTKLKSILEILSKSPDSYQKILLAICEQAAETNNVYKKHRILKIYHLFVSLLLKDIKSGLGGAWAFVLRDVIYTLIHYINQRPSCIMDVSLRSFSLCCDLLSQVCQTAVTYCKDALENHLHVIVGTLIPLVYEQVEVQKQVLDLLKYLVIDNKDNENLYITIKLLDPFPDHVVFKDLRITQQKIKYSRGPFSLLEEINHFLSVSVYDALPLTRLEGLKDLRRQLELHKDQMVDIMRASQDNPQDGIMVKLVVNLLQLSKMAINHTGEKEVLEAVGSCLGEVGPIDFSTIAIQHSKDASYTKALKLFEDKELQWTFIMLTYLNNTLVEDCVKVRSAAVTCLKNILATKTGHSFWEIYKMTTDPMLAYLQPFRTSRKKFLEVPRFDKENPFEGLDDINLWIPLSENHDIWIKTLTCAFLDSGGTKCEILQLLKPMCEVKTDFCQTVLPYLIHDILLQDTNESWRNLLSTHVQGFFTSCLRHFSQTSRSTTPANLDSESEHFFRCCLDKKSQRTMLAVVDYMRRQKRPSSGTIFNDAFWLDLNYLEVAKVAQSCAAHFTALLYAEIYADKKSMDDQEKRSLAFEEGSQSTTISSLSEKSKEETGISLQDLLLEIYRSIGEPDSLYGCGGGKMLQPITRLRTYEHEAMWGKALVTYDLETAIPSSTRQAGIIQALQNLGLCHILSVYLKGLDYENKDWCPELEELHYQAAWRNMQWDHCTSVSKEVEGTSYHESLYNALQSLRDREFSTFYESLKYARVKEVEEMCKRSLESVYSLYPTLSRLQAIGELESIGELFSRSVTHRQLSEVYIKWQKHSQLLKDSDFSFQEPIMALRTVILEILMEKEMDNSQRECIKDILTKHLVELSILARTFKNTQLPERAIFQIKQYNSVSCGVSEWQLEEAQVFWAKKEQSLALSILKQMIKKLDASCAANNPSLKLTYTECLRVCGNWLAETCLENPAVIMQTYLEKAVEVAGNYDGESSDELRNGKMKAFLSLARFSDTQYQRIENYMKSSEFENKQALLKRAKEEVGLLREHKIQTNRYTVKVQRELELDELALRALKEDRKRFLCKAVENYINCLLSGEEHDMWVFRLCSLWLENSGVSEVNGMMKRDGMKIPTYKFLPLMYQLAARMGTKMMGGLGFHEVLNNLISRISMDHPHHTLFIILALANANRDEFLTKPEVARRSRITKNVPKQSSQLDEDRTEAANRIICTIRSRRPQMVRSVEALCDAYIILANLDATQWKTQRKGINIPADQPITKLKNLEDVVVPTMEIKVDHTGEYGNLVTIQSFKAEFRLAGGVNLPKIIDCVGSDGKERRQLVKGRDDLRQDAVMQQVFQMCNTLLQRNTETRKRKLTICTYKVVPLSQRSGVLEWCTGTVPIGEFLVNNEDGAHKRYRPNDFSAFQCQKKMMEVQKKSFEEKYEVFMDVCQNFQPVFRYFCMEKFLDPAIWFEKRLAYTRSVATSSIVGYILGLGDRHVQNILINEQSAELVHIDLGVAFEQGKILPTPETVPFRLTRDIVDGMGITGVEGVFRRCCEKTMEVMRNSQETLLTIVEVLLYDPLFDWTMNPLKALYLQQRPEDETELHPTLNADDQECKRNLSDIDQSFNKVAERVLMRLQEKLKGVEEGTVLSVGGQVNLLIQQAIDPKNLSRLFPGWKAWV
Experimental: Inhibition of cellular ATM activity was determined by changes in etoposide-stimulated KAP1 phosphorylation, based on the work of Guo et al. 2014.
Cryopreserved U20S cells were plated overnight at 6 k cells/well in black walled, clear bottomed 384 well plates (Greiner Bio One 781090). After overnight incubation (37 C, 5% CO2), cells were incubated with titrations of test compounds (0.3% DMSO final) in the presence of 100 μM etoposide (Sigma E1383) to stimulate ATM via induction of double stranded DNA breaks. After 60 min, cells were fixed using 100% cold methanol and incubated at −20° C. for 10 min. Fixed cells were washed with PBS containing 0.05% (v/v) Tween 20 (PBS-T) prior to a 60 minute blocking step in Odyssey blocking buffer (LI-COR Biosciences 92740000). Primary antibodies (1:1000 phosphorylated KAP1: Cell Signalling Technology 4127, 1:5000 total KAP1: Cell Signaling Technology 5868) were diluted in Odyssey blocking buffer and incubated overnight at 4° C., before addition of IRDye(R) conjugated secondary antibodies (LI-COR Biociences 926-32211, LI-COR Biosciences 926-68070) diluted 1:2000 in Odyssey blocking buffer for 60 min at room temperature and detection by LI-COR Odyssey (ImageStudio version 2.1.10, focus offset 4 mm, resolution 169 μm, lowest quality, intensities of 1 and 3 for 700 and 800 channels respectively). Immunoreactivity was quantified and the ratio of phosphorylated KAP1 calculated by dividing by the total KAP1 immunoreactivity. The percentage of inhibition was calculated for each concentration of compound using 100% (100 μM etoposide+30 μM KU-60019) and 0% effect controls (100 μM etoposide+DMSO). IC50 values represent the mean from at least two independent experiments.

Recombinant, full length human FLAG-tagged ATM, sequence (Q13315 whole entry): as above

IC50 [1] | IC50 (cellular ATM activity) | SMILES
0.0024 µM | 0.274 µM | O=c1cc(N2CCOCC2)cc(N2CCCCC[C@@H]2Cc2cccc3c2OCO3)[nH]1 [Example 70, (R)-6-(2-(benzo[d][1,3]dioxol-4-ylmethyl)azepan-1-yl)-4-morpholinopyridin-2(1H)-one]
0.0112 µM | 0.498 µM | O=c1cc(N2CCOCC2)cc(N2CCCC(F)(F)C[C@@H]2Cc2ccccc2)[nH]1 [Example 74, (S)-6-(2-benzyl-4,4-difluoroazepan-1-yl)-4-morpholinopyridin-2(1H)-one]
0.0702 µM | 2.68 µM | CC1(C)CCCN(c2cc(N3CCOCC3)cc(=O)[nH]2)[C@@H](Cc2ccccc2)C1 [Example 76, (R)-6-(2-benzyl-4,4-dimethylazepan-1-yl)-4-morpholinopyridin-2(1H)-one]
0.0108 µM | 0.318 µM | O=c1cc(N2CCOCC2)cc(N2CCCCC[C@@H]2Cc2ccccc2F)[nH]1 [Example 78, (R)-6-(2-(2-fluorobenzyl)azepan-1-yl)-4-morpholinopyridin-2(1H)-one]
0.0476 µM | 0.864 µM | C[C@@H]1CCCN(c2cc(N3CCOCC3)cc(=O)[nH]2)[C@@H](Cc2ccccc2)C1 [Example 84, 6-((2R,4R)-2-benzyl-4-methylazepan-1-yl)-4-morpholinopyridin-2(1H)-one]
0.065 µM | 1.38 µM | COc1ccc(F)cc1C[C@H]1CCCCCN1c1cc(N2CCOCC2)cc(=O)[nH]1 [Example 86]
0.053 µM | 1.66 µM | CO[C@@H]1CCN(c2cc(N3CCOCC3)cc(=O)[nH]2)[C@H]1Cc1ccccc1 [Example 88, 6-((2S,3R)-2-benzyl-3-methoxypyrrolidin-1-yl)-4-morpholinopyridin-2(1H)-one]
0.0391 µM | 0.874 µM | O=c1cc(N2CCOCC2)cc(N2CC[C@@H](OC(F)F)[C@@H]2Cc2ccccc2)[nH]1 [Example 90, 6-((2S,3R)-2-benzyl-3-(difluoromethoxy)pyrrolidin-1-yl)-4-morpholinopyridin-2(1H)-one]
0.0055 µM | 0.27 µM | O=c1cc(N2CCOCC2)cc(N2CC[C@@H](F)[C@@H]2Cc2ccccc2)[nH]1 [Example 96, 6-((2S,3R)-2-benzyl-3-fluoropyrrolidin-1-yl)-4-morpholinopyridin-2(1H)-one]
0.0384 µM | 0.925 µM | O=c1cc(N2CCOCC2)cc(N2CCC(F)(F)[C@@H]2Cc2ccccc2)[nH]1 [Example 98, (S)-6-(2-benzyl-3,3-difluoropyrrolidin-1-yl)-4-morpholinopyridin-2(1H)-one]
0.0396 µM | 2.22 µM | O=c1cc(N2CCOCC2)cc(N2CC(F)(F)C[C@@H]2Cc2ccccc2)[nH]1 [Example 102, (S)-6-(2-benzyl-4,4-difluoropyrrolidin-1-yl)-4-morpholinopyridin-2(1H)-one]
0.0728 µM | 0.684 µM | C[C@@H]1CN(c2cc(N3[C@@H]4CC[C@@H](C4)[C@@H]3Cc3ccccc3)[nH]c(=O)c2)CCO1 [Example 117, 6-((1R,3S,4S)-3-benzyl-2-azabicyclo[2.2.1]heptan-2-yl)-4-((R)-2-methylmorpholino) pyridin-2(1H)-one]
0.0212 µM | 0.861 µM | O=c1cc(N2CCOCC2)cc(N2C[C@H]3CCC[C@H]3[C@@H]2Cc2ccccc2)[nH]1 [Example 123]
0.0033 µM | 0.248 µM | O=c1cc(N2CCOCC2)cc(N2C[C@@H]3CCC[C@@H]3[C@@H]2Cc2ccccc2)[nH]1 [Example 124]
0.0069 µM | 0.388 µM | COc1ccccc1C[C@H]1[C@@H]2C[C@@H]2CN1c1cc(N2CCOCC2)cc(=O)[nH]1 [Example 126]
0.0147 µM | 0.711 µM | COc1ccccc1C[C@H]1[C@H]2C[C@H]2CN1c1cc(N2CCOCC2)cc(=O)[nH]1 [Example 128]
0.0139 µM | 0.581 µM | O=c1cc(N2CCOCC2)cc(N2C[C@@H]3CC[C@@H](C3)[C@@H]2Cc2ccccc2)[nH]1 [Example 134]
0.0087 µM | 0.178 µM | O=c1cc(N2CCOCC2)cc(N2C[C@H]3CC[C@H](C3)[C@@H]2Cc2ccccc2)[nH]1 [Example 135]
